For one data set, the system named is Caco2 cells. In words: Activity of mitochondrial ETC complexes I-IV in Caco2 cells. It counts as cell-based, human. The settings on record: FLVCR1a-silenced vs scramble shRNA Caco2 cells. The text has this: (§1) (A, C, E) Activities of the mitochondrial electron transport chain complexes I-IV. FLVCR1a-silenced Caco2 (A), SKCO1 (C) or C80 cells (E) are compared to cells expressing a scramble shRNA. Results were expressed as nmol NAD^+/min/mg mitochondrial protein for complex I, nmol reduced cytochrome c/min/mg mitochondrial protein for complexes II-III, nmol oxidized cytochrome c/min/mg mitochondrial protein for complex IV. Data represent mean±SEM, n=3. For statistical analyses, an unpaired Student's t-test was used; *=p<0.05, **=p<0.01. (B, D, F) Mitochondrial ATP levels measured by a bioluminescent assay kit. FLVCR1a-silenced Caco2 (B), SKCO1 (D) or C80 cells (F) are compared to cells expressing a scramble shRNA. Results are expressed as nmol/mg mitochondrial proteins. Data represent mean±SEM, n=3. […] Results were expressed as nmol NAD^+/min/mg mitochondrial protein for complex I, nmol reduced cytochrome c/min/mg mitochondrial protein for complexes II-III, nmol oxidized cytochrome c/min/mg mitochondrial protein for complex IV. […] (H) Mitochondrial ATP levels measured by a bioluminescent assay kit in Caco2 cells overexpressing FLVCR1a (indicated as FLVCR1a+) compared to cells stably transduced with an empty vector. Results are expressed as nmol/mg mitochondrial proteins. […]
(§2) The activity of mitochondria respiration complexes was measured according to (Wibom et al., 2002).

The test system of a further data set is C80 cells. In words: Activity of mitochondrial ETC complexes I-IV in C80 cells. The settings on record: FLVCR1a-silenced vs scramble shRNA C80 cells. It counts as cell-based, human.
From the text: as §1, §2

For “FLVCR1a shRNA: shRNA specifically down-regulating FLVCR1a without targeting FLVCR1b; pLKO.1 lentiviral clone TRCN0000059599, antisense SEQ ID No.: 2 (antisense TTGCTAATGATGCTGTACTGG; sense CCAGTACAGCATCATTAGCAA)”, the “activity of mitochondrial respiratory chain complexes” value with Caco2 cells was “increased activity of all the complexes involved in the mitochondrial respiratory chain”. For the same substance, the ETC complexes activity result with C80 cells is “increased ETC complexes activity”.

Values taken from patent publication US20240285670A1, “THERAPEUTIC TREATMENT OF TUMORS BY BLOCKING THE HEME SYNTHESIS-EXPORT AXIS” (Università degli Studi di Torino, priority 2021, published 2024).
